Activity calls are given as the source filed them.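 The calls were made as follows: active = compounds giving half or more protection of infected cells from virus-caused growth loss, again on retest; inactive = the rest.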 Where a SMILES comes first, the peptide text is derived from it. The star is where a group is joined. Boc = CC(C)(C)OC(=O)*
Test system: CEM cells HIV-1 protection, formazan growth assay
Assay: NCI AIDS Antiviral Assay
Conditions: for IC50: measured here: growth of uninfected CEM cells
In short: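 Five concentrations of each compound were applied to infected and uninfected human CEM cells. Protection from HIV-1 was judged from growth measured with a soluble formazan assay.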

| Structure (SMILES) | outcome | EC50 | IC50 |
| --- | --- | --- | --- |
| CC1OC(=O)C2CC3CCCCC3C(/C=C/C3CCCC(C)N3C)C12 (stereo not given) | inactive |  |  |
| COC(=O)C(Cc1ccccc1)NP(=O)(O)OCC1OC(n2cc(F)c(=O)[nH]c2=O)CC1O (stereo not given) |  | > 200 µM | 58.9 µM |
| NC(=O)C(F)(F)C(N)=O |  | > 200 µM | > 200 µM |
| COc1cc2c(cc1O)C1C(O2)c2cc3c(cc2OC1(C)C)OC(C)(C)CC3 (stereo not given) |  | > 200 µM | 28.8 µM |
| C(#CC1(Nc2ccccc2)CCN(Cc2ccccc2)CC1)C1(Nc2ccccc2)CCN(Cc2ccccc2)CC1 |  | > 100 µM | 74.1 µM |
| COC1/C=C/OC2(C)Oc3c(C)c(O)c4c(O)c(c(/C=N/N5C(C)CN(Cc6ccc(C)cc6)CC5C)c(O)c4c3C2=O)NC(=O)C(C)=C/C=C/C(C)C(O)C(C)C(O)C(C)C(OC(C)=O)C1C (stereo not given) |  | > 200 µM | 3.89 µM |
| CN=c1sc2c(n1C)C(=O)c1ccccc1C2=O |  | > 200 µM | 9.33 µM |
| CC(Cn1c2c3ccccc3ccc2c2oc(=O)c3ccccc3c21)N(C)C (stereo not given) |  | > 3.89 µM | > 3.89 µM |
| CN(C)CC1CCCC1=O (stereo not given) | inactive | > 200 µM | 28.2 µM |
| N=c1oc2ccc(Cl)cc2cc1C(=O)NCc1ccccc1 |  | > 200 µM |  |
| c1ccc2nc([Se][Se]c3ccc4ccccc4n3)ccc2c1 |  | > 9.12 µM | 4.17 µM |
| N#C/C(c1nc2ccccc2[nH]1)=c1\s/c(=C(/N)O)c(=N)n1-c1ccccc1 |  | > 13.8 µM | > 13.8 µM |
| COc1ccc2c(c1)[n+](=O)c(C(=O)C/C(=N/NC(=O)c1ccccc1O)C(=O)Nc1ccc(Cl)c(C(F)(F)F)c1)c(C)n2[O-] |  | > 1.2 µM | > 1.2 µM |
| Cc1cc(-c2ccc(N=Nc3c(S(=O)(=O)O)cc4cc(S(=O)(=O)O)cc(N)c4c3O)c(C)c2)ccc1N=Nc1c(S(=O)(=O)O)cc2cc(S(=O)(=O)O)cc(N)c2c1O |  | 34.7 µM | 132 µM |
| CNc1nnnn1C1OC(CO)C(O)C1O (stereo not given) |  | > 1070 µM | > 1070 µM |
| COc1ccc(C2=CC3CCC2C3)cc1 (stereo not given) | inactive |  |  |
| COc1onc(C)c1CC(=O)O |  | > 200 µM | > 200 µM |
| Cc1csc(CCC(N)C(=O)O)n1 (stereo not given) | inactive |  |  |
| N#CN=C(N)NC#N |  | > 1700 µM | > 1700 µM |
| C=CCOc1ccc(Sc2c(O)cc(-c3ccccc3)oc2=O)c(C(C)(C)C)c1 |  | > 200 µM | 31.6 µM |
| O=C(O)Cn1[se]c2ccccc2c1=O |  | 46.8 µM | 120 µM |
| CCO[C@@H]1N(C2CC(N=[N+]=[N-])C(CO)O2)C(=O)NC(=O)[C@@]1(C)Cl (stereo not given in full) |  | > 200 µM | > 200 µM |

| Structure (SMILES) | outcome | EC50 | IC50 |
| --- | --- | --- | --- |
| O=C1c2ccc(S(=O)(=O)O)cc2C(=O)c2cc(S(=O)(=O)O)ccc21 | inactive |  |  |
| CC(O)(c1ccccc1)c1ccc2ccccc2n1 (stereo not given) |  | > 200 µM | 38 µM |
| CCN(CC)C1=Nc2ccccc2N(c2ccccc2)C(=S)C1 |  | > 200 µM | 85.1 µM |
| CC(=O)C1=C(C)NC2C=CC=CN12 (stereo not given) |  | > 1410 µM | 676 µM |
| O=C1c2cscc2C(=O)c2c(OCc3ccccc3)ccc(OCc3ccccc3)c21 |  | > 200 µM | 4.17 µM |
| Cc1c(Cl)c(=O)oc2c3c(ccc12)OC(C)(C)[C@H](OC(=O)C12CCC(C)(C(=O)O1)C2(C)C)[C@@H]3OC(=O)C12CCC(C)(C(=O)O1)C2(C)C (stereo not given in full) |  | 0.282 µM | 5.62 µM |
| N#Cc1c(N)oc2cc3c(C#N)c(N)oc3cc12 | inactive |  |  |
| Cc1nc(C)c(C(=O)NNC(N)=S)cc1C(=O)NNC(N)=S |  | > 200 µM | > 200 µM |
| N=C(N)SCCc1ccncc1 |  | > 200 µM | 155 µM |
| Cc1ccc(/C([O-])=C(\C(=S)Nc2cccc(Cl)c2)[n+]2ccccc2)cc1 |  | > 200 µM | 25.1 µM |
| COC(=O)C1=C(O)c2cc(OC)c(OC)c(OC)c2C(c2ccc3c(c2)OCO3)[C@@H]1C(=O)OC (stereo not given in full) | inactive |  |  |
| COc1cccc(C2c3cc4c(cc3OC(C)(O)C2C)OCO4)c1O (stereo not given) |  | > 200 µM | 0.646 µM |
| COc1ccc(/C(=N/Nc2nc3ccccc3[nH]2)C(=O)O)cc1 |  | > 200 µM | > 200 µM |
| COC(=O)N1CCCCC(CCC#CC[Si](C)(C)C)C1=O (stereo not given) |  | > 120 µM | 110 µM |
| COc1ccc(C2S/C(=C\c3ccccc3O)C(=O)N2NC(=O)Cc2ccccc2)cc1 (stereo not given) |  | > 57.5 µM | > 57.5 µM |
| CN(C)CC1CCCCCCCCCCCCC(CN(C)C)C1=O (stereo not given) |  | > 21.4 µM | > 21.4 µM |
| CC(C)COC(=N)c1ccccc1C1(O)CCCCC1 |  | > 200 µM | 117 µM |
| CC12CCC3[C@@H](CC3(C)C)C(O)(CCC1=O)C2 (stereo not given in full) |  | > 200 µM | > 200 µM |
| O=C(c1cccs1)N(C(=O)N1CCCCC1)c1ccccc1 |  | > 200 µM | 112 µM |
| CC(=O)N1CCN(C=S)CC1 |  | > 1450 µM | > 1450 µM |
| COc1ccc(C(=O)C(C(=O)CCC(=O)Nc2cccc(Cl)c2)c2ccc(OC)cc2)cc1 (stereo not given) |  | > 15.5 µM | > 15.5 µM |
| CC(C)(C)OC(=O)NC(Cc1ccccc1)C(=O)N1CCCC1C(N)=O (stereo not drawn) (Boc-Phe-Pro-NH2; configuration not given here) |  | > 200 µM | > 200 µM |

| Structure (SMILES) | outcome | EC50 | IC50 |
| --- | --- | --- | --- |
| O=[N+]([O-])c1cccc(C=NC23CC4CC(CC(C4)C2)C3)c1 |  | > 66.1 µM | > 66.1 µM |
| S=c1ncc2n[nH]nc2[nH]1 |  | > 200 µM | > 200 µM |
| COc1ccc(-c2c(N)n(-c3nc4ccccc4s3)c(=O)c3cc([N+](=O)[O-])ccc23)cc1 |  | > 100 µM | 1.07 µM |
| CN(C)C(=O)/N=C1\SC(=Nc2ccccc2)C(=Nc2ccccc2)N1c1ccc([N+](=O)[O-])cc1 | inactive |  |  |
| O=C1OC(=O)N2CSCC12 (stereo not given) |  | > 1580 µM | > 1580 µM |
| CN(c1ccc(C(=O)c2ccc(N(C)S(C)(=O)=O)cc2)cc1)S(C)(=O)=O |  | > 25.1 µM | > 25.1 µM |
| O=C1/C(=C/c2ccc(F)cc2)CNC/C1=C\c1ccc(F)cc1 |  | > 15.1 µM | 0.288 µM |
| O=c1[nH]ccc2c1ccn2C1CC(O)C(CO)O1 (stereo not given) | inactive |  |  |
| CCOC(=O)c1cnc(NC)n2nc(-c3ccccc3)nc12 | inactive |  |  |
| CN(C)CCNC(=O)c1cnn(C)c1[N+](=O)[O-] |  | > 200 µM | > 200 µM |
| CCCCCCCCCCCCCCCCCCOCC(COP(=O)(O)OCC1OC(n2cc(C)c(=O)[nH]c2=O)CC1N=[N+]=[N-])OC(=O)CCCCCCCCCCCCCCC (stereo not given) |  | > 50.1 µM | > 50.1 µM |
| O=c1ccn(C2OC(CO)CC2F)c(=O)[nH]1 (stereo not given) |  | > 676 µM | > 676 µM |
| CCOC(=O)c1oc2c(OC)ccc3c2c1CCC3 | inactive |  |  |
| CC(C)[Si]1(C(C)C)OCC2OC(n3ccc(=O)[nH]c3=O)C(O)(CO)C2O[Si](C(C)C)(C(C)C)O1 (stereo not given) |  | > 200 µM | 20.9 µM |
| Cn1c(=O)c2c(nc3n2CCC(=O)N3CCCCl)n(C)c1=O |  | > 200 µM | 166 µM |
| COc1cc(C2c3cc4c(cc3OC3(OC)COC(=O)C23)OCO4)cc(OC)c1OC (stereo not given) |  | > 2 µM | 0.24 µM |
| O=C(N/N=C/c1cc(-c2ccccc2Cl)c(-c2ccccc2Cl)o1)c1ccncc1 |  | > 12 µM | > 12 µM |
| Nc1nccc2c1ncn2C1OC(CO)C(O)C1O (stereo not given) |  | > 933 µM | 30.2 µM |
| Cc1nc(C)c(C(=O)NNC(=O)C[N+](C)(C)C)cc1C(=O)NNC(=O)C[N+](C)(C)C |  | > 200 µM | > 200 µM |
| CC(=O)Nc1ccc(C2C(C(=O)Nc3ccccc3C)=C(C)NC(C)=C2C(=O)Nc2ccccc2C)cc1 |  | > 70.8 µM | > 70.8 µM |
| CCOP(=O)(OCC)C(Nc1ccc(C(=O)O)cc1)c1ccc(C(Nc2ccc(C(=O)O)cc2)P(=O)(OCC)OCC)cc1 (stereo not given) |  | > 200 µM | > 200 µM |
| Cc1ccc([N+](=O)[O-])cc1NC1=NCCO1 |  | > 200 µM | 186 µM |

| Structure (SMILES) | outcome | EC50 | IC50 |
| --- | --- | --- | --- |
| CNc1ccc(N=O)cc1 |  | > 200 µM | 1.07 µM |
| CCOC(=O)/C(=C/c1ccc(N(C)C)cc1)N(CC)CC |  | > 46.8 µM | > 46.8 µM |
| O=c1cc2ccccc2nn1Cc1ccccc1 |  | > 21.9 µM | > 21.9 µM |
| C[C@@H]1[C@@H](c2ccccc2)C12C(=O)NC(=O)NC2=O |  | > 200 µM | > 200 µM |
| Cn1c(N=[N+]=[N-])cc(=O)n(C)c1=O | inactive |  |  |
| Nc1ncnc2oc(C3OC(COC(=O)c4ccccc4)C(OC(=O)c4ccccc4)C3OC(=O)c3ccccc3)nc12 (stereo not given) |  | > 200 µM | 148 µM |
| c1ccc(P(=Nc2ccccc2N=P(c2ccccc2)(c2ccccc2)c2ccccc2)(c2ccccc2)c2ccccc2)cc1 | inactive |  |  |
| O=C(N/N=C\c1ccccn1)c1ccncc1 |  | > 200 µM | 91.2 µM |
| CC(C)=CCC/C(C)=C\C=N/O |  | > 155 µM | 8.13 µM |
| NNC1=N/C(=C\c2ccco2)C(=O)N1 |  | > 200 µM | 162 µM |
| c1ccc(CN2CCC(=NN3CCCCC3)CC2)cc1 |  | > 200 µM | 89.1 µM |
| C=CCC1C(=O)Nc2cccc3ncn(c23)C1=O (stereo not given) |  | > 200 µM | 186 µM |
| O=C(Nc1ccc([N+](=O)[O-])cc1)C(=O)C(C(=O)c1ccccc1F)C1OC(=O)c2ccccc21 (stereo not given) |  | > 204 µM | 8.71 µM |
| CCN(CC)C1=C(N(CC)CC)C(N(CC)CC)=C(N(CC)CC)C1=O.[C-]#[O+].[C-]#[O+].[C-]#[O+].[Fe] |  | > 2.88 µM | > 2.88 µM |
| CC(C)CC(NC(=O)C(C)(CI)Cc1ccccc1)C(=O)Nc1ccccc1 (stereo not given) |  | > 200 µM | 170 µM |
| Cc1cn(C2CCC(COP(=O)(OCOC(=O)C(C)(C)C)OCOC(=O)C(C)(C)C)O2)c(=O)[nH]c1=O (stereo not given) | active |  |  |
| Clc1ccc(-n2nnc(C3=NCCCN3)c2-c2ccccc2)cc1 |  | 129 µM | 148 µM |
| CN1C(=O)c2ccccc2Cc2c(Cl)ncnc21 |  | > 200 µM | 34.7 µM |
| C=CCC1(C(=O)OC(C)(C)C)C(OC)=C(C(=O)OC(C)(C)C)C2C1C(C(=O)OC(C)(C)C)=C(OC)C2(CC=C)C(=O)OC(C)(C)C (stereo not given) | inactive |  |  |
| NC(=O)NCCSC1(SCCNC(N)=O)CCCCC1 |  | > 200 µM | > 200 µM |
| CC(=O)NC1C(OC2C(CO)OC(OCC3OC(n4ccc(N)nc4=O)C(O)C3O)C(NC(C)=O)C2O)OC(CO)C(O)C1O (stereo not given) |  | > 200 µM | 11.2 µM |

Source: PubChem BioAssay AID179 (DTP/NCI, 2004)
